# According to US11883525B2, “Bioerodible polyester polymer axitinib ocular implants and related methods of use” (Dose Medical Corporation, priority 2019, dated 2024):
# Test system: persistent retinal vascular leakage
# Assay: DL-AAA model of persistent retinal vascular leakage, fluorescein angiography
# Format: in vivo, DB rabbits
# Conditions: 2-mg injection
substance,measurement,value
"Eylea® (aflibercept): commercial aflibercept product, macromolecular ligand for VEGF, used to validate the model",duration of effect on leakage,approximately two
